From patent US8470765B2, “Polypeptides and antibacterial or antiseptic use of same” (AnGes MG, Inc., priority 2009, dated 2013) come the findings set out here.

Series [1] has as its system Escherichia coli ATCC 25922. The experiment in a line: microbe, parasite or virus in culture. Particulars: Table 4; two tests, first/second value where not identical. It counts as cell-based. The procedure: (§1) Bacteria (Escherichia coli ATCC 25922, Pseudomonas aeruginosa ATCC 27853, Staphylococcus aureus ATCC29213, Klebsiella pneumoniae JCM 1662, Enterobacter cloacae JCM 1232, Enterobacter aerogenes JCM 1235 and Staphylococcus epidermidis JCM 2414) were inoculated to Mueller-Hinton broth: MHB or LB medium, and cultured at a temperature and period suited for each strain. From the thus obtained colonies, each strain was inoculated to a fresh liquid medium and cultured for 16 to 20 hours. Then an aliquot having a volume (10 to 50 appropriate to each strain was inoculated to a fresh liquid medium and cultured for 4 to 6 hours, followed by the measurement of the absorbance at 600 nm. After comparing the turbidity with McFarland #0.5, the resultant was diluted with a medium. Each strain was added to about 10^5 CFU/mL (final concentration). Each of the peptide solutions to be tested was diluted with MHB to obtain a solution of 128 μg/mL. […] As controls, tobramycin (TOB: aminoglucoside antibiotic), oxacillin (OX:β-lactam antibiotic), meropenem (MEPM: carbapenem antibiotic) and ciprofloxacin (new quinolone antibiotic) were used. […] To a 96-well microtiter plate, 0.1 mL of the inoculation solution and 0.1 mL of the peptide- or positive control-containing medium having the respective concentration were added, and cultured at 37° C. for 16 to 24 hours (or a time period suited for the growth of the respective strain). The well not containing the sample was used as a negative control. After the culturing, the growth was visually observed, and the minimum concentration at which the growth was inhibited was defined as the minimum growth inhibition concentration (MIC). The medium used in this test for bacteria was Mueller-Hinton broth. Independent experiments were carried out twice or more for each strain.

The test system of series [2] is Pseudomonas aeruginosa ATCC 27853. Description: microbe, parasite or virus in culture. It counts as cell-based. The procedure:
as §1

For series [3], the system named is Staphylococcus aureus ATCC29213. The experiment in a line: microbe, parasite or virus in culture. It counts as cell-based. As to the method:
as §1

Series [4] has as its system Staphylococcus epidermidis JCM 2414. The experiment in a line: microbe, parasite or virus in culture. The following applies: JCM 2414. In kind it is cell-based. As to the method:
as §1

Series [5] deals with Escherichia coli ATCC 25922. Description: ATP Assay (viability at 3 hours), Table 6. In kind it is cell-based. The following applies: 3 h, 5 μg/mL. The procedure:
(§2) Bacteria (Escherichia coli ATCC 25922, Pseudomonas aeruginosa ATCC 27853, Staphylococcus aureus ATCC29213, and Staphylococcus epidermidis JCM 2414) were inoculated to Mueller-Hinton broth: MHB or LB medium, and cultured at a temperature and period suited for each strain. From the thus obtained colonies, each strain was inoculated to a fresh liquid medium and cultured for 16 to 20 hours. Then an aliquot having a volume (10 to 50 μL) appropriate to each strain was inoculated to a fresh liquid medium and cultured for 4 to 6 hours, followed by the measurement of the absorbance at 600 nm. After comparing the turbidity with McFarland #0.5, the resultant was diluted with a medium. Each strain was added to about 10^5 CFU/mL (final concentration).
(§3) Each of the peptide solutions to be tested was diluted with the medium to obtain a solution of 10 μg/mL. As positive controls, tobramycin (TOB), oxacillin (OX) and meropenem (MEPM) were used. By dilution with sterilized purified water to 1.0 mg/mL, positive control-containing media having concentrations of […], respectively for TOB; 0.5, 0.12 and 0.06 μg/mL, respectively, for OX; and 1.0, 0.25, 0.12, 0.06, 0.03 and 0.008 μg/mL respectively, for MEPM, were prepared. To a 96-well microtiter plate, 0.1 mL of the inoculation solution and 0.1 mL of the peptide- or positive control-containing medium having the respective concentration were added, and cultured at 37° C. for 3 hours. The well not containing the sample was used as a negative control. After the culturing, ATP was measured using BacTiter-Glo Microbial Cell Viability Assay kit of PROMEGA, and compared with that in the negative control to obtain a relative value which was defined as a viability. The antibacterial activity was evaluated based on the viability at 3 hours later using ATP as an index.
(§4) The medium used in this test for bacteria was Mueller-Hinton broth. Independent experiments were carried out twice for each strain.

Series [6] concerns Pseudomonas aeruginosa ATCC 27853. Description: ATP Assay (viability at 3 hours), Table 6. In kind it is cell-based. The following applies: 3 h, 5 μg/mL. The procedure:
as §2, §3, §4

Series [7] has as its system Staphylococcus aureus ATCC29213. The experiment in a line: ATP Assay (viability at 3 hours), Table 6. In kind it is cell-based. The following applies: 3 h, 5 μg/mL. The procedure: as §2, §3, §4
Series [8] relates to Micrococcus luteus NBRC13867.
For series [9], the system named is Bacillus subtilis NBRC3134. Particulars: NBRC3134.
Series [10] concerns Salmonella enteritidis IID 604. Particulars: IID 604.
Series [11] deals with Salmonella typhimurium JCM1652.
The test system of series [12] is Streptococcus pyogenes JCM5674.
Series [13] relates to Acinetobacter baumanni JCM6841. The following applies: JCM6841.
Series [14] has as its system Bacteroides fragilis JCM 11019.
Series [15] has as its system Fusobacterium nucleatum JCM 11025.
Series [16] has as its system Actinobacillus actinomycetemcomitans JCM2434.
In another series the test system is Fusarium solani JCM11383. Particulars: JCM11383.
The test system of series [17] is Alternaria alternata JCM5800.
Series [18] deals with Trichophyton mentagrophytes NBRC6124. The following applies: NBRC6124.
The subject of series [19] is Trichophyton rubrum NBRC9185. The following applies: NBRC9185.
[20] abbreviates: Table 4, two tests, first/second value where not identical.

Where two headings read alike, the source gives them in different places. No end group written: not given here.

For Ac-GRLKRMGERLKRKIQKWIRW-NH2 [SRP-19], in series [1], the “MIC Escherichia coli” value was 8/16. In addition, the MIC Pseudomonas aeruginosa in series [2] (ATCC 27853) worked out at 8 µg/mL. Further, the MIC Staphylococcus aureus in series [3] (ATCC29213) came out at 8 µg/mL. The substance further showed an MIC Staphylococcus epidermidis in [4] of 8 µg/mL. Besides, the “Escherichia coli ATP (viability, relative value to negative control)” value in series [5] is recorded as 2.9. For the same substance, the “Pseudomonas aeruginosa ATP (viability, relative value to negative control)” value in series [6] is recorded as 1.6. Besides, in series [7], the “Staphylococcus aureus ATP (viability, relative value to negative control)” value is reported as 2.1. The substance further displayed an MIC Micrococcus luteus in series [8] of 2 µg/mL. Besides, the MIC Bacillus subtilis in series [9] came out at 2 µg/mL. The MIC Salmonella Enteritidis in [10] stood at 4 µg/mL. Moreover, in series [11] (JCM1652), the MIC Salmonella Typhimurium is 4 µg/mL. The MIC Streptococcus pyogenes in [12] turned out to be 16 µg/mL. Also, the MIC Acinetobacter baumanni in [13] was determined as 32 µg/mL. Besides, the “MIC Bacteroides fragilis” value in series [14] (setting [20]) is recorded as 16/8. For the same substance, the MIC Fusobacterium nucleatum in series [15] (JCM 11025) was 4 µg/mL. This substance had an MIC Actinobacillus actinomycetemcomitans in series [16] of 64 µg/mL. The MIC Fusarium solani against Fusarium solani JCM11383 is 16 µg/mL. The same substance returned an MIC Alternaria alternata in series [17] (JCM5800) of 64 µg/mL. Also, the MIC Trichophyton mentagrophytes in series [18] was 32 µg/mL. The MIC Trichophyton rubrum in series [19] worked out at 64 µg/mL. The substance also showed an MIC Candida krusei with Candida krusei NBRC1395 (NBRC1395) of 16 µg/mL.
Regarding GRLKRMGERLKRKIQKLIRL-NH2 [SRP-21], in series [1], the “MIC Escherichia coli” value is listed as 16/32. Moreover, the MIC Pseudomonas aeruginosa in [2] (ATCC 27853) was 8 µg/mL. Moreover, in [3] (setting [20]), the “MIC Staphylococcus aureus” value is 8/32. Also, the “MIC Staphylococcus epidermidis” value in series [4] was 8000 to 16000 µg/mL. Also, the “Escherichia coli ATP (viability, relative value to negative control)” value in series [5] came out at 3.7. Also, the “Pseudomonas aeruginosa ATP (viability, relative value to negative control)” value in series [6] was determined as 3.8. Further, the “Staphylococcus aureus ATP (viability, relative value to negative control)” value in [7] is 1.8. Besides, the MIC Micrococcus luteus in series [8] worked out at 1 µg/mL. Moreover, the MIC Bacillus subtilis in series [9] turned out to be 2 µg/mL. Besides, in series [10], the MIC Salmonella Enteritidis stood at 2 µg/mL. This substance came in with an MIC Salmonella Typhimurium in series [11] (JCM1652) of 2 µg/mL. In series [12], the MIC Streptococcus pyogenes was 8 µg/mL. This substance also displayed an MIC Acinetobacter baumanni in [13] of 32 µg/mL. This substance also displayed an MIC Bacteroides fragilis in [14] (JCM 11019) of 16 µg/mL. Moreover, the MIC Fusobacterium nucleatum in series [15] (JCM 11025) was 4 µg/mL. The MIC Actinobacillus actinomycetemcomitans in [16] amounted to 32 µg/mL. Moreover, in the series on Fusarium solani JCM11383, the MIC Fusarium solani worked out at 16 µg/mL. Besides, the MIC Alternaria alternata in series [17] (JCM5800) turned out to be 64 µg/mL. In [18], this substance displayed an MIC Trichophyton mentagrophytes of 64 µg/mL. In series [19], this substance returned an MIC Trichophyton rubrum of 128 µg/mL. This substance also gave an MIC Candida krusei in the series with Candida krusei NBRC1395 (NBRC1395) of 32 µg/mL.
Consider Ac-GRLKRMGKRLKRKIQKWARW-NH2 [SRP-18], for which the “MIC Escherichia coli” value in series [1] is on record as 8/16. In addition, the “MIC Pseudomonas aeruginosa” value in series [2] (setting [20]) is 4/8. Besides, in [3] (setting [20]), the “MIC Staphylococcus aureus” value is reported as 8/16. For the same substance, the MIC Staphylococcus epidermidis in [4] came to 8 µg/mL. Further, the “Escherichia coli ATP (viability, relative value to negative control)” value in series [5] is listed as 1.7. In [6], the “Pseudomonas aeruginosa ATP (viability, relative value to negative control)” value came to 1.5. Further, the “Staphylococcus aureus ATP (viability, relative value to negative control)” value in series [7] is 2.0. The MIC Micrococcus luteus in series [8] is 1 µg/mL. The substance further gave an MIC Bacillus subtilis in series [9] of 2 µg/mL. The same substance yielded an MIC Salmonella Enteritidis in [10] of 2 µg/mL. Besides, the “MIC Salmonella Typhimurium” value in series [11] (setting [20]) is listed as 4/2. The substance also registered an MIC Streptococcus pyogenes in series [12] of 16 µg/mL. Besides, in series [13], the MIC Acinetobacter baumanni amounted to 32 µg/mL. In addition, the “MIC Bacteroides fragilis” value in series [14] (setting [20]) is 64/32. Moreover, the “MIC Fusobacterium nucleatum” value in series [15] (setting [20]) is listed as 32/16. This substance gave an MIC Actinobacillus actinomycetemcomitans in series [16] of 64 µg/mL. For the same substance, the MIC Fusarium solani with Fusarium solani JCM11383 is 8 µg/mL. In [17] (JCM5800), this substance showed an MIC Alternaria alternata of 32 µg/mL. Besides, the MIC Trichophyton mentagrophytes in series [18] is 16 µg/mL. For the same substance, the MIC Trichophyton rubrum in series [19] stood at 32 µg/mL. Further, the “MIC Candida krusei” value with Candida krusei NBRC1395 (setting [20]) was 32/16.
On to Ac-KLIFLRELRRLRKRLKRKLR-NH2 [SRP-20], for which the “MIC Escherichia coli” value in [1] is given as 8/16. Moreover, the “MIC Pseudomonas aeruginosa” value in series [2] (setting [20]) was 8/16. In series [3] (ATCC29213), this substance came in with an MIC Staphylococcus aureus of 16 µg/mL. In [4], the “MIC Staphylococcus epidermidis” value lay within 8000 to 16000 µg/mL. The “Escherichia coli ATP (viability, relative value to negative control)” value in series [5] was determined as 6.2. In addition, the “Pseudomonas aeruginosa ATP (viability, relative value to negative control)” value in [6] is 1.1. The “Staphylococcus aureus ATP (viability, relative value to negative control)” value in series [7] is given as 3.2. In [8], this substance came in with an MIC Micrococcus luteus of 2 µg/mL. The substance also gave an MIC Bacillus subtilis in [9] of 2 µg/mL. The substance further showed an MIC Salmonella Enteritidis in series [10] of 4 µg/mL. The MIC Salmonella Typhimurium in [11] (JCM1652) is 4 µg/mL. In [12], the MIC Streptococcus pyogenes came to 32 µg/mL. In series [13], this substance had an MIC Acinetobacter baumanni of 16 µg/mL. Besides, the “MIC Bacteroides fragilis” value in series [14] (setting [20]) is listed as 8/16. The substance also registered an MIC Fusobacterium nucleatum in [15] (JCM 11025) of 4 µg/mL. The MIC Actinobacillus actinomycetemcomitans in [16] worked out at 128 µg/mL. Moreover, the MIC Fusarium solani in the series on Fusarium solani JCM11383 worked out at 4 µg/mL. In addition, the “MIC Alternaria alternata” value in series [17] (setting [20]) is listed as 32/64. In addition, the MIC Trichophyton mentagrophytes in series [18] was 16 µg/mL. Also, the MIC Trichophyton rubrum in series [19] was 32 µg/mL. Besides, the MIC Candida krusei against Candida krusei NBRC1395 (NBRC1395) came to 16 µg/mL.
